Tests used:
soybean LOX-1 [1] = target: T1, soybean LOX-1 (Glycine max, UniProt P08170); assay: Kinetics of oxygenation of arachidonic acid or arachidonoyl-lysophospholipids by soybean LOX-1; assay type: biochemical; details: soybean LOX-1 2.5 units/ml, 50 mM borax buffer pH 9.0; unit = one nanomole conjugated diene per min
T1 construct: purchased Sigma-Aldrich Corp (St. Louis, Mo., USA) lipoxidase Type I-B
T1 sequence (P08170 1-839): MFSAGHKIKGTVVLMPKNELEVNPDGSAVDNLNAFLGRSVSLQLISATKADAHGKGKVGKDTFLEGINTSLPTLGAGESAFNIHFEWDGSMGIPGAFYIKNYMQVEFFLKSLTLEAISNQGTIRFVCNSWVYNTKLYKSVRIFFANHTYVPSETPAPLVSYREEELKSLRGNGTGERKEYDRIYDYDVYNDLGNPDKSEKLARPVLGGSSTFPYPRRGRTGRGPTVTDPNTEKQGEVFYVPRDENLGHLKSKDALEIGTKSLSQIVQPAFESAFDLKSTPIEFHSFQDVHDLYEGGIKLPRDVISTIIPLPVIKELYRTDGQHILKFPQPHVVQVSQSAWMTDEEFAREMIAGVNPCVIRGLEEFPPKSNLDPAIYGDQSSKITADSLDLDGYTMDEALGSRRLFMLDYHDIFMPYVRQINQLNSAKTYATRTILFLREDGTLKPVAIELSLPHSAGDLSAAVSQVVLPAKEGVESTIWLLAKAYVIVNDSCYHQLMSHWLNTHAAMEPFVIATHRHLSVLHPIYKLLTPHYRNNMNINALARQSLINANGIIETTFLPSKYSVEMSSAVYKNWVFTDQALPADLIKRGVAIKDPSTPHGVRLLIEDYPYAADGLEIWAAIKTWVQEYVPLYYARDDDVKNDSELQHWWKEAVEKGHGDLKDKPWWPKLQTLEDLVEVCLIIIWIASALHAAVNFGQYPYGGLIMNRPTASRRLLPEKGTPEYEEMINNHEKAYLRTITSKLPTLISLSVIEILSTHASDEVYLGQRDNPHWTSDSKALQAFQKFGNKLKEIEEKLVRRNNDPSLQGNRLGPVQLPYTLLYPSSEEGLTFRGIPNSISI
Description: (§1) Activities of various LOXs were monitored by measuring the increase in absorbance at 234 nm due to the formation of hydroperoxide (ε234=25,000 M^−1 cm^−1) at 25° C. as described before (Smith et al, J. Biol. Chem. 247 (1972) 1038-1047). One unit is defined as the amount of LOXs that can produce one nanomole of conjugated diene per min. The reaction mixture (500 μl) included reticulocyte LOX (2 units/ml) in 50 mM phosphate buffer (pH 7.4), porcine leukocyte LOX (1 unit/ml) in 100 mM phosphate buffer (pH 7.5) containing 5 mM EDTA and 0.03% Tween 20, or soybean LOX-1 (2.5 units/ml) in 50 mM borax buffer (pH 9.0) at 25° C. The reactions were started by including each substrate (100 μM) into the above reaction mixture.
(§2) Reticulocyte LOX (2 units/ml), leukocyte LOX (1 units/ml) or soybean LOX-1 (2.5 units/ml) was incubated with each arachidonoyl derivative substrate of various concentrations as described above. The values of kinetic parameters were obtained according to Lineweaver Burke plot analyses as described before (Barroso et al, J. Chromatogr. B. Analyt. Technol. Biomed. Life. Sci. 814 (2005) 21-28).

[2] = target: T2, Leukocyte 12-lipoxygenase (leukocyte LOX) (Sus scrofa, UniProt P16469); assay: Kinetics of oxygenation of arachidonic acid or arachidonoyl-lysophospholipids by leukocyte LOX; assay type: biochemical, porcine; details: leukocyte LOX 1 unit/ml, 100 mM phosphate buffer pH 7.5, 5 mM EDTA, 0.03% Tween 20
T2 construct: purchased Cayman Chemical Co. (Ann Arbor, Mich., USA)
T2 sequence (P16469 1-663): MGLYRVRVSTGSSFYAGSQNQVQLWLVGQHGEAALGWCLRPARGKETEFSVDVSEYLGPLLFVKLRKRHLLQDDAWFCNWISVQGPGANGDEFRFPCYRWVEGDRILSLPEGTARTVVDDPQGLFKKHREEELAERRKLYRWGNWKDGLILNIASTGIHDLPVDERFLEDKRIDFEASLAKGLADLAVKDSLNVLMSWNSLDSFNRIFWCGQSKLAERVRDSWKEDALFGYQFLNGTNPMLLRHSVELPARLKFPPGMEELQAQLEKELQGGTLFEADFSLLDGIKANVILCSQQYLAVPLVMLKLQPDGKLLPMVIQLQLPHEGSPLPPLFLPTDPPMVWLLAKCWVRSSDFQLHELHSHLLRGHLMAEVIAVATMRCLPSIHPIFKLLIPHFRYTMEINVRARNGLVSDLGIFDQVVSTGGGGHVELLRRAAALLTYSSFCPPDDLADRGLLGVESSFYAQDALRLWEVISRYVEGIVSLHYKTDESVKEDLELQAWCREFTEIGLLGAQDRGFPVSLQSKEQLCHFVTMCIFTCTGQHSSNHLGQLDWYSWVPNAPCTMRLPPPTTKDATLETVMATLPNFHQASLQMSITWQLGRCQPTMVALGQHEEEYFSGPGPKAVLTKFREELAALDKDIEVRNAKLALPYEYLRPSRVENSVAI
Description: as §1, §2

Reticulocyte LOX = target: T3, Reticulocyte LOX (Oryctolagus cuniculus, UniProt P12530); assay: Kinetics of oxygenation of linoleoylated substrates by reticulocyte LOX; assay type: biochemical, Rabbit; details: reticulocyte LOX 8.2 units/ml, 50 mM phosphate buffer pH 7.4, 25° C.; for Km: substrate 3-100 μM
T3 construct: purchased Biomol Inc. (Plymouth Meeting, Pa., USA)
T3 sequence (P12530 1-663): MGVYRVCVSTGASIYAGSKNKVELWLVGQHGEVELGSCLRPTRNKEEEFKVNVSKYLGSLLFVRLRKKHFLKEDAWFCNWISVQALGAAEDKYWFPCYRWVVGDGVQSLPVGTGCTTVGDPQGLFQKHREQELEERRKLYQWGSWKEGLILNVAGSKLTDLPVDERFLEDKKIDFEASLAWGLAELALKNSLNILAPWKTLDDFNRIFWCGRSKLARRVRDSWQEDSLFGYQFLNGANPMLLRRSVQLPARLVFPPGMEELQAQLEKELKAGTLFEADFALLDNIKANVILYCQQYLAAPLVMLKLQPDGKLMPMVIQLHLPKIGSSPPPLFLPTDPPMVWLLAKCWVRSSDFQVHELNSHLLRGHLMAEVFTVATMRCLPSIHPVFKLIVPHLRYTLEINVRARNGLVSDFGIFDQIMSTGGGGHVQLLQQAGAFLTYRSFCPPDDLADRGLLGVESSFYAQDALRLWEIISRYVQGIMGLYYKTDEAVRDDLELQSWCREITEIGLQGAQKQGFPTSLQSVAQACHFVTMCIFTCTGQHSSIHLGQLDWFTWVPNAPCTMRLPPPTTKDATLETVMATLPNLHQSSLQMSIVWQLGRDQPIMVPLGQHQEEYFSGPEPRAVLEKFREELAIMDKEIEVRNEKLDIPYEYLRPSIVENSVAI
From the text: (§3) Data were expressed as means ±S.D. of results from at least three independent experiments.

Porcine leukocyte LOX = target: T4, Porcine leukocyte LOX (Sus scrofa, UniProt P16469); assay: Kinetics of oxygenation of linoleoylated substrates by leukocyte LOX; assay type: biochemical; details: porcine leukocyte LOX 1.5 units/ml, 100 mM phosphate buffer pH 7.5, 5 mM EDTA
T4 construct: purchased Cayman Chemical Co. (Ann Arbor, Mich., USA)
T4 sequence (P16469 1-663): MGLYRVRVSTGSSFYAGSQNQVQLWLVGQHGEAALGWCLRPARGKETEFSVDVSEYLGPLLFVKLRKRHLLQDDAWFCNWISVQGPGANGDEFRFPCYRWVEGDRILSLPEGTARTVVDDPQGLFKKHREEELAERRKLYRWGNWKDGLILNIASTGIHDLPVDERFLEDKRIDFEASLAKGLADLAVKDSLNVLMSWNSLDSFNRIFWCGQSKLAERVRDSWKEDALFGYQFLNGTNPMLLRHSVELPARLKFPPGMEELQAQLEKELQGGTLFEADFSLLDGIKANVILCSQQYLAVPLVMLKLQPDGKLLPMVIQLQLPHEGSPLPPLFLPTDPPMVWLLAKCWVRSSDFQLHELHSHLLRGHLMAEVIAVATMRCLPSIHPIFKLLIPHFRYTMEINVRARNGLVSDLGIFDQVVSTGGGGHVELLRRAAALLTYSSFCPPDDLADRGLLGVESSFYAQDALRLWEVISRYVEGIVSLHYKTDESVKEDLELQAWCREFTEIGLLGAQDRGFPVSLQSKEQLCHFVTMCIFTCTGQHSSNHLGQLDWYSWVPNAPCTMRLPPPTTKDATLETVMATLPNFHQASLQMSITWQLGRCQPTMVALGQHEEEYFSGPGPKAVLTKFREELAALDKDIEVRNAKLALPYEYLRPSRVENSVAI
From the text: as §3

soybean LOX-1 [3] = target: T1, soybean LOX-1; assay: Kinetics of oxygenation of docosahexaenoic acid derivatives by soybean LOX-1; assay type: biochemical; details: soybean LOX-1 2.5 units/ml, 50 mM borax buffer pH 9.0, 25° C.
Description: Soybean LOX-1 (2.5 units/ml) was incubated with docosahexaenoyl-lysoPC, didocosahexaenoyl-lysoPC or docosahexaenoic acid of various concentrations in 500 μl of 50 mM borax buffer (pH 9.0) at 25° C. Values were expressed as means ±S.D. of results from at least three independent experiments.

[4] = substrate: CCCCC/C=C\C/C=C\C/C=C\C/C=C\CCCC(=O)O; assay: Kinetics of oxygenation of arachidonic acid or arachidonoyl-lysophospholipids by leukocyte LOX; assay type: biochemical, porcine; details: other: leukocyte LOX 1 unit/ml, 100 mM phosphate buffer pH 7.5, 5 mM EDTA, 0.03% Tween 20, 25° C.
Description: as §1, §2

[5] = substrate: CC/C=C\C/C=C\C/C=C\C/C=C\C/C=C\C/C=C\CCC(=O)O; assay: Kinetics of oxygenation of docosahexaenoyl-lysoPC or docosahexaenoic acid by leukocyte LOX; assay type: biochemical; details: other: porcine leukocyte LOX 2 units/ml, 100 mM phosphate buffer pH 7.4, 5 mM EDTA, 0.03% Tween 20, 25° C.
Description: Porcine leukocyte LOX (2 units/ml) was incubated with each substrate docosahexaenoyl-lysoPC or docosahexaenoic acid of various concentrations in 500 μl of 100 mM phosphate buffer (pH 7.4) containing 5 mM EDTA and 0.03% Tween 20 at 25° C.

For `CCCCC/C=C\C/C=C\C/C=C\C/C=C\CCCC(=O)O` [Arachidonic acid, arachidonic acid], the Vm (soybean LOX-1 [1]) was 92.2 units/μg and the Vm [2] was 63.2 units/mg.

Molecule `CCCCC/C=C\C/C=C\CCCCCCCC(=O)OC[C@H](COP(=O)(O)O)OC(=O)CCCCCCC/C=C\C/C=C\CCCCC` [Dilinoleoyl-PA] has a Vm (Reticulocyte LOX) of 1029 ± 22 units/mg and a Km (Reticulocyte LOX) of 90 ± 7.3 µM.

With `CCCCC/C=C\C/C=C\CCCCCCCC(=O)OCC(O)COP(=O)(O)O` (stereo not shown) [Linoleoyl-lysoPA] the Vm (Reticulocyte LOX) was 443 ± 9 units/mg, the Km (Reticulocyte LOX) was 8.3 ± 0.6 µM and the Vm (Porcine leukocyte LOX; 0.03% Tween 20) was 30.7 ± 0.78 units/mg. It also gave a Km (Porcine leukocyte LOX; substrate 3-100 μM, 0.03% Tween 20, 25° C.) of 35.5 ± 3.77 µM.

For “didocosahexaenenoyl phosphatidylcholine [Didocosahexaenoyl-PC]”, the Km (soybean LOX-1 [3]) was 1070 ± 184 µM and the Vm (soybean LOX-1 [3]) was 7.8 ± 0.3 units/μg.

B1: Leukocyte 12-lipoxygenase (leukocyte LOX) (Sus scrofa) (protein)
chain: MGLYRVRVSTGSSFYAGSQNQVQLWLVGQHGEAALGWCLRPARGKETEFSVDVSEYLGPLLFVKLRKRHLLQDDAWFCNWISVQGPGANGDEFRFPCYRWVEGDRILSLPEGTARTVVDDPQGLFKKHREEELAERRKLYRWGNWKDGLILNIASTGIHDLPVDERFLEDKRIDFEASLAKGLADLAVKDSLNVLMSWNSLDSFNRIFWCGQSKLAERVRDSWKEDALFGYQFLNGTNPMLLRHSVELPARLKFPPGMEELQAQLEKELQGGTLFEADFSLLDGIKANVILCSQQYLAVPLVMLKLQPDGKLLPMVIQLQLPHEGSPLPPLFLPTDPPMVWLLAKCWVRSSDFQLHELHSHLLRGHLMAEVIAVATMRCLPSIHPIFKLLIPHFRYTMEINVRARNGLVSDLGIFDQVVSTGGGGHVELLRRAAALLTYSSFCPPDDLADRGLLGVESSFYAQDALRLWEVISRYVEGIVSLHYKTDESVKEDLELQAWCREFTEIGLLGAQDRGFPVSLQSKEQLCHFVTMCIFTCTGQHSSNHLGQLDWYSWVPNAPCTMRLPPPTTKDATLETVMATLPNFHQASLQMSITWQLGRCQPTMVALGQHEEEYFSGPGPKAVLTKFREELAALDKDIEVRNAKLALPYEYLRPSRVENSVAI
notes: purchased Cayman Chemical Co. (Ann Arbor, Mich., USA)
For B1, the Km [4] was 7.7 µM, the Vmax [4] was 63.2 ± 11.9 units/mg and the Vmax/Km [4] was 8.2 ± 1.5 units/mg/μM.

B2: Porcine leukocyte LOX (Sus scrofa) (protein)
chain: MGLYRVRVSTGSSFYAGSQNQVQLWLVGQHGEAALGWCLRPARGKETEFSVDVSEYLGPLLFVKLRKRHLLQDDAWFCNWISVQGPGANGDEFRFPCYRWVEGDRILSLPEGTARTVVDDPQGLFKKHREEELAERRKLYRWGNWKDGLILNIASTGIHDLPVDERFLEDKRIDFEASLAKGLADLAVKDSLNVLMSWNSLDSFNRIFWCGQSKLAERVRDSWKEDALFGYQFLNGTNPMLLRHSVELPARLKFPPGMEELQAQLEKELQGGTLFEADFSLLDGIKANVILCSQQYLAVPLVMLKLQPDGKLLPMVIQLQLPHEGSPLPPLFLPTDPPMVWLLAKCWVRSSDFQLHELHSHLLRGHLMAEVIAVATMRCLPSIHPIFKLLIPHFRYTMEINVRARNGLVSDLGIFDQVVSTGGGGHVELLRRAAALLTYSSFCPPDDLADRGLLGVESSFYAQDALRLWEVISRYVEGIVSLHYKTDESVKEDLELQAWCREFTEIGLLGAQDRGFPVSLQSKEQLCHFVTMCIFTCTGQHSSNHLGQLDWYSWVPNAPCTMRLPPPTTKDATLETVMATLPNFHQASLQMSITWQLGRCQPTMVALGQHEEEYFSGPGPKAVLTKFREELAALDKDIEVRNAKLALPYEYLRPSRVENSVAI
notes: as for B1
Work on B2 yielded a Km [5] of 17.6 ± 1.7 µM, a Vmax [5] of 35.9 µmol/min/mg and a Vmax/Km [5] of 2.1e+06 µL/min/mg.

From patent US20070264679A1, “Method for analyzing the activity of lipoxygenase using a water-soluble substrate” (Chungnam National University Industry Collaboration …, priority 2006, published 2007)
